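Briefly, cells in 96-well plates were exposed to five compound concentrations for 48 h, and endpoints were estimated by linear interpolation. TGI: total growth inhibition.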
Columns and labels:
Test in all cases: NCI-60 cell line screen, 48 h
OVCAR-8 ovarian = system: OVCAR-8 ovarian
UACC-62 melanoma = system: UACC-62 melanoma
HS 578T breast = system: HS 578T breast
786-0 renal = system: 786-0 renal
HOP-62 NSCLC = system: HOP-62 NSCLC
COLO 205 colon = system: COLO 205 colon
NCI-H522 lung = system: NCI-H522 lung
OVCAR-5 ovarian = system: OVCAR-5 ovarian
SNB-19 CNS = system: SNB-19 CNS
MCF7 breast = system: MCF7 breast
HCT-15 colon = system: HCT-15 colon
SNB-75 CNS = system: SNB-75 CNS
MALME-3M melanoma = system: MALME-3M melanoma
HCC-2998 colon = system: HCC-2998 colon
CCRF-CEM leukemia = system: CCRF-CEM leukemia
NCI-H226 lung = system: NCI-H226 lung
SR leukemia = system: SR leukemia
HL-60(TB) leukemia = system: HL-60(TB) leukemia
SF-295 CNS = system: SF-295 CNS
SF-539 CNS = system: SF-539 CNS

| SMILES | TGI (OVCAR-8 ovarian) [µM] | TGI (UACC-62 melanoma) [µM] | TGI (HS 578T breast) [µM] | TGI (786-0 renal) [µM] | TGI (HOP-62 NSCLC) [µM] | TGI (COLO 205 colon) [µM] | TGI (NCI-H522 lung) [µM] | TGI (OVCAR-5 ovarian) [µM] | TGI (SNB-19 CNS) [µM] | TGI (MCF7 breast) [µM] | TGI (HCT-15 colon) [µM] | TGI (SNB-75 CNS) [µM] | TGI (MALME-3M melanoma) [µM] | TGI (HCC-2998 colon) [µM] | TGI (CCRF-CEM leukemia) [µM] | TGI (NCI-H226 lung) [µM] | TGI (SR leukemia) [µM] | TGI (HL-60(TB) leukemia) [µM] | TGI (SF-295 CNS) [µM] | TGI (SF-539 CNS) [µM] |
| --- | --- | --- | --- | --- | --- | --- | --- | --- | --- | --- | --- | --- | --- | --- | --- | --- | --- | --- | --- | --- |
| CCOC(=O)c1cc(C2CCN(c3ccccc3)C2=O)c(C(=O)/C=C(/C)N)[nH]1 (stereo not given) | > 100 | 40.1 | 46.3 | 21.8 | 46 | > 100 | 53.1 | > 100 | 52.4 | > 100 | > 100 | 28.2 | 35.6 | > 100 | > 100 | 80.4 | > 100 | > 100 | 46.7 |  |
| CC[P+]1(c2ccccc2)[C@@H](C)CC[C@@H]1C | > 100 | > 100 | > 100 | > 100 | > 100 | > 100 | > 100 | > 100 | > 100 | > 100 | > 100 | > 100 | > 100 | > 100 | > 100 | > 100 | > 100 | > 100 | > 100 | > 100 |
| COc1ccc(N2C(=O)C3c4[nH]c5ccc(F)cc5c4C4CCC(C(C)(C)C)CC4C3C2=O)cc1 (stereo not given) | > 10 | > 10 | > 10 |  | > 10 | > 10 | > 10 | > 10 | > 10 | > 10 | > 10 | 4.87 | > 10 | > 10 | > 10 | > 10 | > 10 | > 10 | > 10 | > 10 |
| C(=Nc1ccc(-c2nc3ccccc3[nH]2)cc1)c1ccco1 | > 100 | > 100 | > 100 | > 100 | > 100 | > 100 | > 100 | > 100 |  | > 100 | > 100 | > 100 | > 100 | > 100 | > 100 | > 100 | > 100 | > 100 |  | > 100 |
| CC1(C)OC[C@@H](O)[C@H](Br)CO1 | > 100 | > 100 | > 100 | > 100 | > 100 | > 100 |  | > 100 | > 100 | > 100 | > 100 | > 100 | > 100 | > 100 | > 100 | > 100 | > 100 | > 100 | > 100 | > 100 |
| CC1(C)CCCCCC(C)(CCCO)C1=O (stereo not given) | > 100 | > 100 | > 100 | > 100 | > 100 | > 100 | > 100 | > 100 | > 100 | > 100 | > 100 | > 100 | > 100 | > 100 | > 100 | > 100 | > 100 | > 100 | > 100 |  |
| CCOC(=O)CN1CC(C2=C(O)CN(CC(=O)OCC)C2=O)=CC1=O | > 100 | > 100 | > 100 | > 100 | > 100 | > 100 | > 100 | > 100 | > 100 | > 100 | > 100 | > 100 | > 100 | > 100 | > 100 | > 100 | > 100 | > 100 | > 100 | > 100 |
| COC(=O)/C=C(\S/C=C(/c1ccccc1)N1CCn2c(C(=O)c3ccccc3)c(C(=O)OC)c(C(=O)OC)c21)C(=O)OC | 3.21 | > 10 | > 10 | 3.19 | 5.02 | 3.46 | 1.73 | > 10 | > 10 | 4.33 | 6.7 | > 10 | 4.81 | > 10 | 4.2 | > 10 | > 10 | 2.6 | > 10 | 3.74 |
| N#C/C(N)=C(\C#N)N=CNc1ccc(N)cc1 | > 100 | > 100 | > 100 | > 100 | > 100 | > 100 | > 100 | > 100 | > 100 | > 100 | > 100 | > 100 | > 100 | > 100 | > 100 | > 100 | > 100 | > 100 | > 100 | > 100 |
| COc1cccc2cc(C(C)=O)c(=O)oc12 | > 100 | > 100 | > 100 | > 100 | > 100 | > 100 | > 100 | > 100 |  | > 100 |  | > 100 | > 100 | > 100 | > 100 | > 100 | > 100 | > 100 | > 100 | > 100 |
| CN(C(=O)Cc1cc(Cl)c(Cl)cc1NC(=O)CN)[C@H]1CCCC[C@@H]1N1CCCC1 | > 100 | 30.2 | 64 | 38 | > 100 |  |  | > 100 | > 100 | > 100 | > 100 | 55.9 | 36.1 | 31.6 | 73.3 |  | 77.8 | 52.7 | 77.1 |  |
| O=S(=O)(/N=C(\NO)Nc1ccc(Cl)cc1)c1ccccc1 | > 75 | 36.9 | 34.6 | 16.9 | > 100 | 51.5 | 5.38 | 56.6 | > 89.3 | > 100 | > 100 | 19.4 | 22.5 | 22 | > 100 | > 100 | 9.91 | > 33.7 | > 100 | > 30.6 |
| CCN(CC)c1ccc2cc(C(=O)Nc3ccc(C)cc3)c(=N)oc2c1 | > 100 | > 100 | > 100 | > 100 | > 100 | > 100 |  | > 100 | > 100 | > 100 | > 100 | > 100 | > 100 | > 100 | > 100 | > 100 | > 100 | > 100 |  |  |
| Nc1ccc(-c2nc3ccccc3s2)cc1C#Cc1ccccc1 | 42.4 | 33.9 | 50.2 | 32.3 | 28.2 | 31 | 34.2 | 54.5 | 72.1 | 19.2 | 38.2 | 59.7 | 28.5 |  | 93.2 | 49.2 | > 100 | 62.1 | 47.1 | 35.4 |
| CCCC1(CCC)c2cc(/C=N\O)ccc2-c2ccc(-c3ccc(C(C)(C)C)cc3)cc21 | > 100 |  | > 100 | > 100 | > 100 | > 100 |  | > 100 | > 100 | > 100 | > 100 | > 100 | > 100 | > 100 | 68.8 |  | 73.1 | 51.7 | > 100 | > 100 |
| COc1cc2ccc1OCc1cccc(n1)COc1ccc(cc1OC)C=NCCNCCNCCN=C2 | > 100 | > 100 | > 100 | > 100 | > 100 | > 100 | > 100 | > 100 | > 100 | > 100 | > 100 | > 100 | > 100 | > 100 | > 100 | > 100 | > 100 | > 100 |  | > 100 |
| COC(=O)/C=C\C(C#N)(C#N)N=Cc1sccc1C | 8.69 | 17 | 37.1 | 4.34 | 27.8 | 2.53 | 1.67 | 14.4 | 33.8 | 3.13 | 4.57 | 28.4 | 11.3 | 28.6 | 4.19 | 13.2 | > 100 | 4.45 | 35.1 |  |
| O=C(O)c1ccc(Nc2nc3cc(C(F)(F)F)ccc3n3cccc23)cc1 | > 100 | 77.8 | > 100 | 65.5 | > 100 | 37 | 53.8 | > 100 | > 100 | > 100 | > 100 | 81 | > 100 | 44.6 | > 100 |  | 41.6 | > 100 | > 100 | 74.6 |
| CCOC(=O)Cc1cnc(NC(NC(=O)CC)(C(F)(F)F)C(F)(F)F)s1 |  | > 100 | > 100 |  | > 100 |  | > 100 | > 100 | > 100 | > 100 | > 100 | > 100 | > 100 | > 100 | > 100 | > 100 | > 100 | > 100 |  | > 100 |
| NC(=Nc1cccc(Cl)c1)c1ccccc1N | > 100 | > 100 | > 100 | > 100 | > 100 | > 100 | > 100 | > 100 | > 100 | > 100 | > 100 | > 100 | > 100 | > 100 |  | > 100 | > 100 | > 100 | > 100 |  |
| CNC(=O)OC(COC)CN1CCN(c2ccccc2C)CC1 (stereo not given) | > 10 | > 10 | > 10 | > 10 | > 10 | > 10 | > 10 |  | > 10 | > 10 | > 10 | > 10 | > 10 | > 10 | > 10 | > 10 | > 10 | > 10 | > 10 | > 10 |
| O=C1CSC2=NC3=C(CSC/C3=C\c3ccccc3)C(c3ccccc3)N12 (stereo not given) | > 100 | > 100 | > 100 | > 100 | > 100 | > 100 |  | > 100 |  | > 100 | > 100 | > 100 | > 100 | > 100 | > 100 | > 100 | > 100 | > 100 | > 100 | > 100 |
| CO[C@@H]1C[C@H](OC(N)=O)[C@@H]2C=C[C@@H]3/C=C(C)/C=C/[C@@H](C)[C@H](/C(C)=C/[C@@H](C)NC(C)=O)OC(=O)/C=C/C=C(C)\C=C\[C@]3(C)[C@@H]2C1 | 50 | 0.292 | 0.0455 | 2.74 | 0.429 | 0.514 | 0.103 | 3.63 | 10.2 | 17 | 0.717 | 0.0826 | 0.798 | 0.664 | 7.59 |  | 5.11 | 3.04 | 0.111 | 0.0846 |
| CC/C=C/C[C@H](O)[C@H]1C[C@H]2O[C@H](CC(=O)OC)C[C@H]2O1 | > 100 | > 100 | > 100 | > 100 | > 100 | > 100 | > 100 | > 100 | > 100 | > 100 | > 100 | > 100 | > 100 | > 100 | > 100 | > 100 | > 100 | > 100 | > 100 |  |
| COc1ccc2c3c([nH]c2c1)CCN(Cc1ccccc1)C3 | > 100 | > 100 | 56.9 |  | 80.2 | 38.5 |  | 69 | 44.3 | 33.8 | 39 | > 100 | 34.6 | 34.1 | > 100 | 73.2 | 40.3 | 35.8 | 28.2 | 32.7 |
